We go through nine compounds from patent publication US20260374739A1, “SMALL MOLECULAR WEIGHT CHEMICAL COMPOUND TO ANTAGONIZE EPH-EPHRIN TETRAMERIZATION AND INHIBIT BIDIRECTIONAL SIGNALING” (THE BOARD OF REGENTS OF THE UNIVERSITY OF TEXAS SYSTEM, priority 2022, published 2026).

“And” between values parts separate entries of the source, which are not always exact repeats. Equal values may be shown once. Read-outs that look alike come from different tables or passages of the source. Marks after values point to notes of the source that are not given here.

As usually defined, the IC50 is the concentration that gives 50% inhibition.

For test [1], the target named is T1, EphrinB2-EphB2 (Homo sapiens, UniProt P29323).
T1 construct: soluble human EphB1-His, EphB2-His, and EphB4-His ectodomains; commercially available human EphrinB1-Fc (EB1), EphrinB2-Fc (EB2), and EphrinB3-Fc (EB3) ectodomain proteins; purchased
T1 sequence (P29323 19-543 limits assumed): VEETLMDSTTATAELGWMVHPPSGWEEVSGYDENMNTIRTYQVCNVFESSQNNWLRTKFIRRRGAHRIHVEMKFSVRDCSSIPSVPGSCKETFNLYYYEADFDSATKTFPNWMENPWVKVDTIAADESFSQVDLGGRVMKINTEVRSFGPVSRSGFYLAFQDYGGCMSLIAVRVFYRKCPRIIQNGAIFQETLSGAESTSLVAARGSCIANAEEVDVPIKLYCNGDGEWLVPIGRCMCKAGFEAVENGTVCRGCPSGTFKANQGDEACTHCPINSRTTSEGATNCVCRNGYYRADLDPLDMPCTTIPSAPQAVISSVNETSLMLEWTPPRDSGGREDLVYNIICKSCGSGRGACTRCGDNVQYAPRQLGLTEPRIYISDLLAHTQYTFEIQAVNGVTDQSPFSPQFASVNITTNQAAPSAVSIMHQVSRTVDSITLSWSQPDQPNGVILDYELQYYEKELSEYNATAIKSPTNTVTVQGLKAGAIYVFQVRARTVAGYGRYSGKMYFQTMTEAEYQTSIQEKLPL
As to the kind of experiment: Octet 80 sec association/500 sec dissociation, immobilized human EphrinB2-Fc binding to soluble human EphB2-His. As to conditions: for inhibition of EphrinB2-EphB interactions: 3.2 μM, EphB1, EphB2 and EphB4; for inhibition at 3.2 µM: EphB2, 25 nM EphB2, 3.2 μM compound, A20-I as max control, 0* = less than 0, no inhibition; for EphB2 Inhibition Percent, Inhibition of Association ONLY: at 3.2 μM and 80 seconds; for EphB2 Inhibition Percent, Inhibition of Association ONLY / EphB2 Inhibition Percent, Inhibition of Association-Dissociation: immobilized human EphrinB2, 25 nM soluble human EphB2; for EphB2 Inhibition Percent, Inhibition of Association-Dissociation: at 3.2 μM and 580 seconds. Put shortly:
(§1)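 EphrinB2-Fc captured on AHC biosensors, then soluble His-tagged EphB ectodomain (25 nM for % inhibition runs) associated 80 s and dissociated 500 s in PBS, 0.05% Tween-20, 1% DMSO ± compound. Compounds tested at 0.1–3.2 μM with a 10 μM max standard; IC50 from AUC of full traces or at 75 s and 135 s.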

The target of test [2] is T1, EphrinB2-EphB2. The test can be described thus: Octet tetramerization inhibition, immobilized human EphrinB2 binding to 50 nM soluble human EphB2. On the technique in general: In BLI a coated tip is dipped into the sample, and binding shifts an interference pattern.
Another test concerns the target T2, EphrinB2-EphB4 (Homo sapiens, UniProt P54760).
T2 construct: soluble human EphB1-His, EphB2-His, and EphB4-His ectodomains; commercially available human EphrinB1-Fc (EB1), EphrinB2-Fc (EB2), and EphrinB3-Fc (EB3) ectodomain proteins; purchased
T2 sequence (P54760 16-539 limits assumed): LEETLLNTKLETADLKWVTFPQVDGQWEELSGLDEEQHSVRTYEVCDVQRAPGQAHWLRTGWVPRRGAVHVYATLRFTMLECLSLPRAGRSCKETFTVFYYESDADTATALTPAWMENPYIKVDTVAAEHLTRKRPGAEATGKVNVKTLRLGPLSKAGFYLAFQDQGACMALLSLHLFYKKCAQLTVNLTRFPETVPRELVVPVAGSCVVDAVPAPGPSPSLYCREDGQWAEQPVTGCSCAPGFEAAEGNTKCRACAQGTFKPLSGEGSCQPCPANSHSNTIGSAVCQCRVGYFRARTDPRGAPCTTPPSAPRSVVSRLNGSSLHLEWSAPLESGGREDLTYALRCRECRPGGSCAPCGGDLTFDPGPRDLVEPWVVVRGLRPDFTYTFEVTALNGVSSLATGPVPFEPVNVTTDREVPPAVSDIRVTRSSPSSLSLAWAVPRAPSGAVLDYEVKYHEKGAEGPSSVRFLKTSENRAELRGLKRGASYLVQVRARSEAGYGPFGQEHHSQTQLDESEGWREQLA
As to the kind of experiment: Octet 80 sec association/500 sec dissociation, immobilized human EphrinB2-Fc binding to soluble human EphB4-His. As to conditions: for inhibition at 3.2 µM: EphB4, 25 nM EphB4, 3.2 μM compound, A20-I as max control, 0* = less than 0, no inhibition; for EphB4 Inhibition Percent, Inhibition of Association ONLY: at 3.2 μM and 80 seconds; for EphB4 Inhibition Percent, Inhibition of Association ONLY / EphB4 Inhibition Percent, Inhibition of Association-Dissociation: immobilized human EphrinB2, 25 nM soluble human EphB4; for EphB4 Inhibition Percent, Inhibition of Association-Dissociation: at 3.2 μM and 580 seconds. Put shortly: as §1

The mark [3] stands for this setting: Absolute AUC/IC50, Table A, EphrinB2-EphB2.
Where [4] appears, read: Absolute Association IC50 (300 sec), Table A, EphrinB2-EphB2.
The mark [5] stands for this setting: Absolute Dissociation IC50 (450 sec), Table A, EphrinB2-EphB2.
The mark [6] stands for this setting: Relative AUC/IC50, Table A, EphrinB2-EphB2, compound 7: association only.
Setting [7] is: Relative Association IC50 (300 sec), Table A, EphrinB2-EphB2.
Where [8] appears, read: Relative Dissociation IC50 (450 sec), Table A, EphrinB2-EphB2.
Setting [9] is: tetramerization inhibitor IC50 (relative), association step, surmountable tetramer.
Where [10] appears, read: read-out: % Inhibition: Association + Dissociation (160 sec).
The mark [11] stands for this setting: read-out: % Inhibition: Association ONLY (80 sec).

For `Oc1ccc(CN2CCOCC2)c2cccnc12` [Compound 1, 5-(morpholinomethyl)quinolin-8-ol], the “inhibition of EphrinB2-EphB interactions” value at EphrinB2-EphB2 [1] is listed as “generally less active towards all three interactions”. Further, the “tetramerization inhibitor activity” value on EphrinB2-EphB2 [2] was “only weak ability to inhibit formation of the EB2-EphB2 tetramer”. Moreover, the IC50 at EphrinB2-EphB2 [2] (setting [3]), on EphrinB2-EphB2 [2] (setting [4]), on EphrinB2-EphB2 [2] (setting [5]), on EphrinB2-EphB2 [2] (setting [6]), at EphrinB2-EphB2 [2] (setting [7]) and on EphrinB2-EphB2 [2] (setting [8]) was > 1600 nM in each case. Further, at EphrinB2-EphB2 [2] (setting [9]), the IC50 was > 1600 nM.
`Oc1c(Cl)cc(CN2CCOCC2)c2cccnc12` [Compound 3, 7-chloro-5-(morpholinomethyl)quinolin-8-ol]: the “inhibition of EphrinB2-EphB interactions” value at EphrinB2-EphB2 [1] is recorded as “activity similar to A20-I max control”. The inhibition at 3.2 µM at EphrinB2-EphB2 [1] (setting [10]) was 78.1%; at EphrinB2-EphB2 [1] (setting [11]), 64.1%; at EphrinB2-EphB4 (setting [10]) it was 35.5%; on EphrinB2-EphB4 (setting [11]), 16.8%. Moreover, the IC50 at EphrinB2-EphB2 [2] (setting [3]) was 2400 nM; on EphrinB2-EphB2 [2] (setting [4]), 2340 nM; on EphrinB2-EphB2 [2] (setting [5]), 1700 nM; at EphrinB2-EphB2 [2] (setting [7]), 1120 nM; at EphrinB2-EphB2 [2] (setting [8]) it was 1050 nM; on EphrinB2-EphB2 [2] (setting [9]), ~500 nM.
In the case of `Oc1c(Cl)cc(CN2CCOCC2)c2cccnc12` [Compound 4, 4-((7-chloro-8-hydroxyquinolin-1-ium-5-yl)methyl)morpholin-4-ium chloride], the “EphB2 Inhibition Percent, Inhibition of Association ONLY” value at EphrinB2-EphB2 [1] came to 64.1%. The “EphB2 Inhibition Percent, Inhibition of Association-Dissociation” value on EphrinB2-EphB2 [1] is reported as 78.1%. Further, the “EphB4 Inhibition Percent, Inhibition of Association ONLY” value at EphrinB2-EphB4 is listed as 16.8%. The “EphB4 Inhibition Percent, Inhibition of Association-Dissociation” value on EphrinB2-EphB4 stood at 35.5%. The IC50 on EphrinB2-EphB2 [2] (setting [3]) is 930 nM; on EphrinB2-EphB2 [2] (setting [4]), 1260 nM; on EphrinB2-EphB2 [2] (setting [5]), 760 nM; at EphrinB2-EphB2 [2] (setting [6]), 510 nM; at EphrinB2-EphB2 [2] (setting [7]), 530 nM; at EphrinB2-EphB2 [2] (setting [8]) it was 550 nM.
As to `Oc1c(Br)cc(CN2CCOCC2)c2cccnc12` [Compound 5, 7-bromo-5-(morpholinomethyl)quinolin-8-ol], the inhibition at 3.2 µM came to 75.7% at EphrinB2-EphB2 [1] (setting [10]), 55.4% on EphrinB2-EphB2 [1] (setting [11]), 23% on EphrinB2-EphB4 (setting [10]) and 0% on EphrinB2-EphB4 (setting [11]). The concentration for half-maximal inhibition (IC50) at EphrinB2-EphB2 [2] (absolute IC50, association, dissociation and AUC, A20 salt) is ~1000 nM and 1000 nM; on EphrinB2-EphB2 [2] (effective/relative IC50, A20 salt) it was < 1000 nM; on EphrinB2-EphB2 [2] (setting [9]), ~500 nM. Further, the association slope at EphrinB2-EphB2 [2] (in presence of A20, role: inhibitor, 20° without) amounted to 10 °. The IC (maximum) on EphrinB2-EphB2 [2] (read-out: concentration producing maximum inhibition) worked out at 1 µM. Besides, the inhibition at 1 µM at EphrinB2-EphB2 [2] (read-out: reduction of association response) is ~50%.
For the compound `Oc1c(Br)cc(CN2CCOCC2)c2cccnc12` [Compound 6, 4-((7-bromo-8-hydroxyquinolin-1-ium-5-yl)methyl)morpholin-4-ium chloride], at EphrinB2-EphB2 [1], the “EphB2 Inhibition Percent, Inhibition of Association ONLY” value is listed as 61.0%. The “EphB2 Inhibition Percent, Inhibition of Association-Dissociation” value on EphrinB2-EphB2 [1] worked out at 76.8%. At EphrinB2-EphB4, the “EphB4 Inhibition Percent, Inhibition of Association ONLY” value is 20.0%. For the same compound, the “EphB4 Inhibition Percent, Inhibition of Association-Dissociation” value at EphrinB2-EphB4 worked out at 35.9%. Moreover, the IC50 came to 930 nM at EphrinB2-EphB2 [2] (setting [4]); 690 nM on EphrinB2-EphB2 [2] (setting [5]); 480 nM on EphrinB2-EphB2 [2] (setting [6]); 490 nM on EphrinB2-EphB2 [2] (setting [7]); 530 nM at EphrinB2-EphB2 [2] (setting [8]).
For `Oc1c(I)cc(CN2CCOCC2)c2cccnc12` [Compound 8, 4-((8-hydroxy-7-iodoquinolin-1-ium-5-yl)methyl)morpholin-4-ium chloride], on EphrinB2-EphB2 [1], the “EphB2 Inhibition Percent, Inhibition of Association-Dissociation” value was determined as 73.6%. Further, the IC50 was 1320 nM and 1000 nM and 1480 nM on EphrinB2-EphB2 [2] (setting [3]); 1380 nM and 1350 nM and > 3200 nM on EphrinB2-EphB2 [2] (setting [4]); 980 nM and 1260 nM and 850 nM at EphrinB2-EphB2 [2] (setting [5]); 630 nM at EphrinB2-EphB2 [2] (setting [6]); 630 nM and 850 nM on EphrinB2-EphB2 [2] (setting [7]); 660 nM and 930 nM on EphrinB2-EphB2 [2] (setting [8]).
Take `Oc1ccc(CN2CCCCC2)c2cccnc12` [Compound 68, 5-(piperidin-1-ylmethyl)quinolin-8-ol, reference compound]: at EphrinB2-EphB2 [1], the “EphB2 Inhibition Percent, Inhibition of Association ONLY” value stood at 54.9% and the “EphB2 Inhibition Percent, Inhibition of Association-Dissociation” value was found to be 72.9%. On EphrinB2-EphB4, the “EphB4 Inhibition Percent, Inhibition of Association ONLY” value is given as 0*% and the “EphB4 Inhibition Percent, Inhibition of Association-Dissociation” value stood at 5.8%.
As for `Oc1c(CN2CCCCC2)cc(Cl)c2cccnc12` [Compound 76, 5-chloro-7-(piperidin-1-ylmethyl)quinolin-8-ol, reference compound], at EphrinB2-EphB2 [1], the “EphB2 Inhibition Percent, Inhibition of Association ONLY” value was 59.7% and 46.7%; the “EphB2 Inhibition Percent, Inhibition of Association-Dissociation” value is 77.8% and 71.3%. Also, at EphrinB2-EphB4, the “EphB4 Inhibition Percent, Inhibition of Association ONLY” value is 17.9% and 11.6%; the “EphB4 Inhibition Percent, Inhibition of Association-Dissociation” value is 34.5% and 29.6%.
For the compound `COCc1cc(CN2CCN(C)CC2)c(O)c2ncccc12` [Compound 77, 5-(methoxymethyl)-7-((4-methylpiperazin-1-yl)methyl)quinolin-8-ol, reference compound], on EphrinB2-EphB2 [1], the “EphB2 Inhibition Percent, Inhibition of Association ONLY” value came to 5.4% and the “EphB2 Inhibition Percent, Inhibition of Association-Dissociation” value worked out at 35.1%. Moreover, on EphrinB2-EphB4, the “EphB4 Inhibition Percent, Inhibition of Association ONLY” value is recorded as 0*% and the “EphB4 Inhibition Percent, Inhibition of Association-Dissociation” value worked out at 2.7%.
